Measured values taken from patent US20230416248A1, “COMPOUNDS AND USES THEREOF” (Foghorn Therapeutics Inc., priority 2020, published 2023).
Like-named read-outs stand apart in the source and are kept apart here.

Key:
BRG-1 = target: T1, BRG-1 (Homo sapiens, UniProt P51532); assay: ATPase catalytic activity of BRG-1, ADP-Glo in vitro biochemical assay; settings: 30 nM BRG-1, 400 μM ATP, read-out: BRG1 IC50
T1 construct: made in house; host or cells: High Five insect cells
Procedure, shortened: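 Biochemical ADP-Glo assay, BRG-1. Post-reaction: ATP depletion reagent, 40 min RT; ADP→ATP conversion/detection reagent, 60 min RT; luminescence read on plate luminometer.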

BRM = target: T2, BRM (Homo sapiens, UniProt P51531); assay: ATPase catalytic activity of BRM, ADP-Glo in vitro biochemical assay; settings: for IC50: 30 nM BRM, 400 μM ATP; for Ratio* (BRG1 IC50 (μM) divided by BRM IC50 (μM)): selectivity ratio BRG1 IC50 / BRM IC50
T2 construct: made in house; host or cells: High Five insect cells
T2 sequence (P51531 whole entry): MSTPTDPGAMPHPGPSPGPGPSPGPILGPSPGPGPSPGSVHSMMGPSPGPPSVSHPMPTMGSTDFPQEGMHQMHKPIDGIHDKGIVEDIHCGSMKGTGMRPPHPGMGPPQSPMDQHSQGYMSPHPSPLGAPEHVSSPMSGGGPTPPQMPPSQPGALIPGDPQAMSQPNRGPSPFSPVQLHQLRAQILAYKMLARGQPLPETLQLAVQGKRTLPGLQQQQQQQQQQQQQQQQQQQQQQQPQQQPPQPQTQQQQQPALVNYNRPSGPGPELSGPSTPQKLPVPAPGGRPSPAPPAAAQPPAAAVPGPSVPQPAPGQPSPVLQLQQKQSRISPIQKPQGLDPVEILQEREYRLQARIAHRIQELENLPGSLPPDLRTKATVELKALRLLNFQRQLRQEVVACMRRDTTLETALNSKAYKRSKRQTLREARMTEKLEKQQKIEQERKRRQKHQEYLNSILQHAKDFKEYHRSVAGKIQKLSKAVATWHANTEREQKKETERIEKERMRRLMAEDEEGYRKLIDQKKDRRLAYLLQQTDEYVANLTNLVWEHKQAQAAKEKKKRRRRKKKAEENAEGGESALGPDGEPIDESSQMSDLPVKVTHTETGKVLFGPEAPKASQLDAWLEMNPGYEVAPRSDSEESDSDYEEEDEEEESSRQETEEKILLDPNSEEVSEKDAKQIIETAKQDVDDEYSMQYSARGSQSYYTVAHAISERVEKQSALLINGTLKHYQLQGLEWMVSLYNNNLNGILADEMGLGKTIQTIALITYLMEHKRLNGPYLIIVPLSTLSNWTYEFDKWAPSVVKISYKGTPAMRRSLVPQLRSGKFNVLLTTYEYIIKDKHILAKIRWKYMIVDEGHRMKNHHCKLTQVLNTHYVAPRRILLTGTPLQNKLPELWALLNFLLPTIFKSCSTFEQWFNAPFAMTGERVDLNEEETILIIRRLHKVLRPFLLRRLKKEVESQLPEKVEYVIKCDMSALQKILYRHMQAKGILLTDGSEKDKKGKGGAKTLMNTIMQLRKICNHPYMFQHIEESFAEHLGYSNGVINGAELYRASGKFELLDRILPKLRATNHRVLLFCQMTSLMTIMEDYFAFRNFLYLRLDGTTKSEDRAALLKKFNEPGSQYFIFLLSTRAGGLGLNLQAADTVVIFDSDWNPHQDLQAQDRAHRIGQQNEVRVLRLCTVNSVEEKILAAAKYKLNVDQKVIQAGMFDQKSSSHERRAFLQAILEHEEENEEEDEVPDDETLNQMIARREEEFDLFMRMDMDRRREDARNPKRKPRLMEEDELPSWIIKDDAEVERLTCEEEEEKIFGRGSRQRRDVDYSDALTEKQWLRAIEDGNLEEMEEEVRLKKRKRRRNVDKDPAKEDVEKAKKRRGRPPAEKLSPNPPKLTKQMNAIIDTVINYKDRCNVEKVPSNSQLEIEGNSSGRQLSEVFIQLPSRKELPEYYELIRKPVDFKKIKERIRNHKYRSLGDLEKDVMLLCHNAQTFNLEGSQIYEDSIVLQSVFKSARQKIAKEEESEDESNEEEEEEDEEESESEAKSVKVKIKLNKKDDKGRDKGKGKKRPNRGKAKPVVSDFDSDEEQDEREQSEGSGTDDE
Procedure, shortened: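 Recombinant BRM (30 nM) hydrolysed 400 μM ATP with 20 nM salmon sperm DNA in pH 8 Tris buffer containing 20 mM MgCl2, 50 mM NaCl, 0.1% Tween-20 and 1 mM DTT, 1 h at room temperature. ADP formed was quantified by ADP-Glo luminescence.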

[1] = ATPase catalytic activity, ADP-Glo

T1 sequence (P51532 whole entry): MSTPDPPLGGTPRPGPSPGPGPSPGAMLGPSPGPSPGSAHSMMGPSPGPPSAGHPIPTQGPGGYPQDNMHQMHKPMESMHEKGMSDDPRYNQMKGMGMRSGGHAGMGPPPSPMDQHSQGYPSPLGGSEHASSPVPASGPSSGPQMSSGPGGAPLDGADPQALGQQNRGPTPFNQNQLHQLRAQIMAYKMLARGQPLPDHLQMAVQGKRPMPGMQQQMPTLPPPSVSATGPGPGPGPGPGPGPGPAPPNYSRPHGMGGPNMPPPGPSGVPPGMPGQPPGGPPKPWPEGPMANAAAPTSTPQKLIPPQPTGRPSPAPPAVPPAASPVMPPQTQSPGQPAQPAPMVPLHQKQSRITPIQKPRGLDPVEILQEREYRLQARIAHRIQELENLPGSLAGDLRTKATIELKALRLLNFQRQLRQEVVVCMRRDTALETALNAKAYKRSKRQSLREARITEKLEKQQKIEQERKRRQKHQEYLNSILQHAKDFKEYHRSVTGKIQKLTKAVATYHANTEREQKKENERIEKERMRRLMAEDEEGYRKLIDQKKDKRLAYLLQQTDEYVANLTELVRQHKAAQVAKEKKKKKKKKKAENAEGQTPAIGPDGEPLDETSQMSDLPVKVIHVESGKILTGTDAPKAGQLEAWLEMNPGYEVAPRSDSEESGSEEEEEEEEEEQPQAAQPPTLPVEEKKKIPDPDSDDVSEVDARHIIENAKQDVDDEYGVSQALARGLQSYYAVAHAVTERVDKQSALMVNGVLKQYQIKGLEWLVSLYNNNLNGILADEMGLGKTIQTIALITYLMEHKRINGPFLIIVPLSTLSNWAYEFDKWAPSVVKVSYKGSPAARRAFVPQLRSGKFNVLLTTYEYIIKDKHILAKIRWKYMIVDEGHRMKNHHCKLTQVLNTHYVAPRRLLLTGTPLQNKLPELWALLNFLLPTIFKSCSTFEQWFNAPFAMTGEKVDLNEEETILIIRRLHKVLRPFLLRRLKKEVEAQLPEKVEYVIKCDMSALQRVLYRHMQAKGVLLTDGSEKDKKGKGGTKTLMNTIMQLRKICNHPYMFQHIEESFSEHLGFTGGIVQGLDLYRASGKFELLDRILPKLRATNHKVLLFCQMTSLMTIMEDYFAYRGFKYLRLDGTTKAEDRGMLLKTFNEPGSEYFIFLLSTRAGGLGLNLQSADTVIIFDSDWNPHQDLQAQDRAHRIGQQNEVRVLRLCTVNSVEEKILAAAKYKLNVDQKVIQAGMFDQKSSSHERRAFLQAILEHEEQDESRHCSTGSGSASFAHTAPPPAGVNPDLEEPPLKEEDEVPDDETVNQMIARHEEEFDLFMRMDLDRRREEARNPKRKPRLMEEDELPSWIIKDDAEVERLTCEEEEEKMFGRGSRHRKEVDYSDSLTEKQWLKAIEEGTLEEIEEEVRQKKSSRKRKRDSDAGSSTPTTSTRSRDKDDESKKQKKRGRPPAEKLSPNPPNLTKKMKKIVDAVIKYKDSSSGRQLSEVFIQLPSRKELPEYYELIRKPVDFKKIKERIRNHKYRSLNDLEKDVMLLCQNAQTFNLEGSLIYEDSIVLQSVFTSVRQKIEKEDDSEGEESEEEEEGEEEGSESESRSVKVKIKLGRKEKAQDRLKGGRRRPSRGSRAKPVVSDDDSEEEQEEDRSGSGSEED

IC50 (BRG-1; [1]) [µM] | IC50 (BRM; [1]) [µM] | Ratio* (BRM; ratio of BRG1 IC50 to BRM IC50) | IC50 (BRG-1; ADP-Glo ATPase assay) [µM] | IC50 (BRM; ADP-Glo ATPase assay) [µM] | Ratio* (BRM; ratio BRG1 IC50 / BRM IC50) | Ratio* (BRG1 IC50 (μM) divided by BRM IC50 (μM)) (BRM) | Compound
0.96 | 0.0102 | 93.83 |  |  |  |  | O=C(NCc1cc2nc(N3CCOc4ccc([C@@H]5CC5(F)F)nc43)ccc2cn1)c1ccc2c(c1)S(=O)(=O)CCOC2 [Compound 702]
 |  |  | 0.0679 | 0.0087 | 7.77 |  | COc1cncc2c1CCCN2c1ccc2cnc(CNC(=O)c3ccc4c(c3)S(=O)(=O)CCOC4)cc2n1 [Compound 761]
 |  |  | 0.246 | 0.0319 | 7.70 |  | COc1ncc(F)c2c1CCCN2c1ccc2cnc(CNC(=O)c3ccc4c(c3)S(=O)(=O)CCOC4)cc2n1 [Compound 825]
 |  |  | 1.68 | 0.0624 | 26.90 |  | [2H]C1([2H])Oc2ccc(C(=O)NCc3cc4nc(N5CCOc6ccc(C(F)F)nc65)ccc4cn3)cc2S(=O)(=O)C([2H])([2H])C1([2H])[2H] [Compound 818]
2.37 | 0.155 | 15.23 |  |  |  |  | C[C@@H]1CN(c2cccc(-c3ccc4cnc(CNC(=O)c5ccc6c(c5)S(=O)(=O)CC[C@@H](C(F)F)O6)cc4n3)n2)C[C@H](C)O1 [Compound 581]
 |  |  | 2.18 | 0.216 | 10.10 |  | Cc1ncnc2c1CCCN2c1ccc2cnc(CNC(=O)c3ccc4c(c3)S(=O)(=O)CCOC4)cc2n1 [Compound 848]
0.151 | 0.0084 | 17.87 |  |  |  |  | O=C(NCc1cc2nc(N3CCOc4cccnc43)ccc2cn1)c1ccc2c(c1)S(=O)(=O)CCOC2 [Compound 367]
0.263 | 0.0214 | 12.29 |  |  |  |  | O=C(NCc1cc2nc(N3CCOc4cc(C(F)F)ccc43)ccc2cn1)c1ccc2c(c1)S(=O)(=O)CCOC2 [Compound 520]
 |  |  | 2.07 | 0.105 | 19.74 |  | O=C(NCc1cc2nc(N3CCOc4ccc([C@@H](F)CF)nc43)ccc2cn1)c1ccc2c(c1)S(=O)(=O)CCOC2 [Compound 854]
0.369 | 0.0401 | 9.22 |  |  |  |  | COC1(Cn2ccc3c(-c4ccc5cnc(CNC(=O)c6ccc7c(c6)S(=O)(=O)CCOC7)cc5n4)ccnc32)CC1 [Compound 585]
0.0724 | 0.0066 | 10.88 |  |  |  |  | CN(C[C@H]1CCO1)c1cccc(-c2ccc3cnc(CNC(=O)c4ccc5c(c4)S(=O)(=O)CCOC5)cc3n2)n1 [Compound 383]
 |  |  | 0.764 | 0.0423 | 18.04 |  | COCc1cc(C)c2c(n1)N(c1ccc3cnc(CNC(=O)c4ccc5c(c4)S(=O)(=O)CCOC5)cc3n1)CCC2 [Compound 816]
0.0354 | 0.0046 | 7.69 |  |  |  |  | COCCN(CC(F)F)c1cccc(-c2ccc3cnc(CNC(=O)c4ccc5c(c4)S(=O)(=O)CCOC5)cc3n2)n1 [Compound 358]
0.671 | 0.173 | 3.88 |  |  |  |  | CC1CCc2ccc(-c3ccc4cnc(CNC(=O)c5ccc6c(c5)S(=O)(=O)CCOC6)cc4n3)nc2O1 (stereo not drawn) [Compound 529]
2.54 | 0.0904 | 28.12 |  |  |  |  | CC(F)(F)c1ccc2c(n1)N(c1ccc3cnc(CNC(=O)c4ccc5c(c4)S(=O)(=O)CCOC5)cc3n1)CCO2 [Compound 617]
 |  |  | 0.486 | 0.0191 | 25.47 |  | [2H]C1([2H])OC([2H])([2H])C([2H])([2H])S(=O)(=O)c2cc(C(=O)NCc3cc4nc(N5CCOc6ccc(C(F)F)nc65)ccc4cn3)ccc21 [Compound 807]
0.59 | 0.0104 | 56.64 |  |  |  |  | O=C(NCc1cc2nc(N3CCCc4ccc(C5CC5)nc43)ccc2cn1)c1ccc2c(c1)S(=O)(=O)CCOC2 [Compound 536]
0.287 | 0.0342 | 8.38 |  |  |  |  | C[C@H]1CCN(C)c2nc(-c3ccc4cnc(CNC(=O)c5ccc6c(c5)S(=O)(=O)CCOC6)cc4n3)ccc21 [Compound 694]
0.491 | 0.0349 | 14.08 |  |  |  |  | CO[C@@H](C)Cn1ccc2c(-c3ccc4cnc(CNC(=O)c5ccc6c(c5)S(=O)(=O)CCOC6)cc4n3)ccnc21 [Compound 449]
1.16 | 0.048 | 24.14 |  |  |  |  | O=C(NCc1cc2nc(N3CCCc4ccc(C5CCOC5)nc43)ccc2cn1)c1ccc2c(c1)S(=O)(=O)CCOC2 (stereo not drawn) [Compound 630]
0.293 | 0.0214 | 13.72 |  |  |  |  | O=C(NCc1cc2nc(-c3ccc(C(F)F)cc3OC3CC3)ccc2cn1)c1ccc2c(c1)S(=O)(=O)CCOC2 [Compound 357]

The remaining lines, values behind:

Compound | IC50 (BRG-1; [1]) [µM] | IC50 (BRM; [1]) [µM] | Ratio* (BRM; ratio of BRG1 IC50 to BRM IC50) | IC50 (BRG-1; ADP-Glo ATPase assay) [µM] | IC50 (BRM; ADP-Glo ATPase assay) [µM] | Ratio* (BRM; ratio BRG1 IC50 / BRM IC50) | Ratio* (BRG1 IC50 (μM) divided by BRM IC50 (μM)) (BRM)
O=C(NCc1cc2nc(-c3cccc(C4CC4)n3)ccc2nn1)c1ccc2c(c1)S(=O)(=O)CCOC2 [Compound 253] |  |  |  | 0.398 | 0.0207 |  | 19.26
C[C@@H]1CN(c2cccc(-c3ccc4cnc(CNC(=O)c5ccc(CC(F)F)c(S(C)(=O)=O)c5)cc4n3)n2)C[C@H](C)O1 [Compound 138] |  |  |  | 0.0507 | 0.0108 |  | 4.70
CCN(c1cccc(-c2ccc3cnc(CNC(=O)c4ccc5c(c4)S(=O)(=O)CCOC5)cc3n2)n1)C1CC1 [Compound 337] | 0.211 | 0.0219 | 9.67 |  |  |  | 
O=C(NCc1cc2nc(-c3cncc(C4CC4)n3)ccc2cn1)c1ccc2c(c1)S(=O)(=O)CCOC2 [Compound 305] |  |  |  | 0.279 | 0.03 |  | 9.32
COC1CN(c2cccc(-c3ccc4cnc(CNC(=O)c5ccc6c(c5)S(=O)(=O)CCOC6)cc4n3)n2)C1 [Compound 228] |  |  |  | 0.282 | 0.0205 |  | 13.77
CO[C@@H]1CCN(c2cccc(-c3ccc4cnc(CNC(=O)c5ccc6c(c5)S(=O)(=O)CCOC6)cc4n3)n2)C1 [Compound 200] |  |  |  | 0.0591 | 0.0081 |  | 7.31
COc1cc(CC(F)F)ccc1-c1ccc2cnc(CNC(=O)c3ccc4c(c3)S(=O)(=O)CCOC4)cc2n1 [Compound 316] | 0.495 | 0.0471 | 10.49 |  |  |  | 
C[C@@H]1CN(c2cccc(-c3ccc4cnc([C@H](C)NC(=O)c5ccc6c(c5)S(=O)(=O)CCOC6)cc4n3)n2)C[C@H](C)O1 [Compound 122] |  |  |  | 0.0677 | 0.0103 |  | 6.56
O=C(NCc1cc2nc(-c3cccc([C@@H]4CC4(F)F)n3)ccc2cn1)c1ccc2c(c1)S(=O)(=O)CCOC2 [Compound 270] |  |  |  | 1.57 | 0.127 |  | 12.44
O=C(NCc1cc2nc(-c3cccc(N4CCC(F)(F)C4)n3)ccc2cn1)c1ccc2c(c1)S(=O)(=O)CCOC2 [Compound 202] |  |  |  | 0.136 | 0.0179 |  | 7.59
CC(C)(F)c1cncc(-c2ccc3cnc(CNC(=O)c4ccc5c(c4)S(=O)(=O)CCOC5)cc3n2)n1 [Compound 262] |  |  |  | 2.62 | 0.466 |  | 5.63
O=C(NCc1cc2nc(-c3cccc(N4CCCOCC4)n3)ccc2cn1)c1ccc2c(c1)S(=O)(=O)CCOC2 [Compound 78] |  |  |  | 0.198 | 0.019 |  | 10.42
O=C(NCc1cc2nc(-c3cncc(C4CC4)n3)ccc2cn1)c1ccc2c(c1)S(=O)(=O)CCCO2 [Compound 302] |  |  |  | 2.35 | 0.277 |  | 8.50
CN(C)[C@H]1CCN(c2cccc(-c3ccc4cnc(CNC(=O)c5ccc6c(c5)S(=O)(=O)CCOC6)cc4n3)n2)CC1(F)F [Compound 81] |  |  |  | 1.74 | 0.275 |  | 6.33
C[C@@H]1CN(c2cncc(-c3ccc4cnc(CNC(=O)c5ccc6c(c5)S(=O)(=O)CCOC6)cc4c3)n2)C[C@H](C)O1 [Compound 211] |  |  |  | 0.0213 | 0.007 |  | 3.05
